Experimental data as given in ChEMBL document CHEMBL5352414 (Eur J Med Chem, 2022).
Active and inactive are the calls of the source. No cut-off for these calls is given here.

How the values were obtained:
[1] = molecular target: T1, Voltage-dependent T-type calcium channel subunit alpha-1H (Homo sapiens, UniProt O95180); assay: Inhibition of human Cav3.2 T-type Ca2+ channel expressed in HEK293 cells assessed as reduction in T-currents at 0.3 uM at -80 mV holding potential by whole cell patch-clamp assay; format: cell-based
[2] = molecular target: D(2) dopamine receptor (Rattus norvegicus) (UniProt P61169); assay: Displacement of [3H]-spiperone from dopamine D2 receptor in rat brain striatum membrane homogenates at 1 uM incubated for 90 mins; format: cell membranes
[3] = molecular target: D(2) dopamine receptor (Rattus norvegicus) (UniProt P61169); assay: Displacement of [3H]-spiperone from dopamine D2 receptor in rat brain striatum membrane homogenates at 10 uM incubated for 90 mins; format: cell membranes
[4] = Toxicity in mouse assessed as impairment of neuromuscular coordination by measuring shortened latency to fall at 10 mg/kg, ip measured after 60 to 90 mins by rota-rod test; format: organism-based; conditions: in vivo, time 60-90 min
[5] = molecular target: T1, Voltage-dependent T-type calcium channel subunit alpha-1H; assay: Inhibition of human Cav3.2 T-type Ca2+ channel expressed in HEK293 cells assessed as effect on T-currents in response to -20 mV test pulse at -80 mV holding potential by whole cell patch-clamp assay; format: cell-based
[6] = molecular target: 5-hydroxytryptamine receptor 2A (Rattus norvegicus) (UniProt P14842); assay: Antagonist activity at 5-HT2A receptor in Wistar rat jugular vein assessed as vasorelaxation of serotonin-induced contraction at 10 uM preincubated for 10 mins followed by serotonin stimulation; format: functional, tissue-based
[7] = Half life in mouse at 10 mg/kg, ip measured for 24 hrs by LC-MS/MS analysis; format: ADME, organism-based; conditions: in vivo
[8] = molecular target: Voltage-dependent T-type calcium channel subunit alpha-1G (Homo sapiens, UniProt O43497); assay: Inhibition of human Cav3.1 T-type Ca2+ channel expressed in HEK293 cells assessed as effect on T-currents in response to -20 mV test pulse at -80 mV holding potential by whole cell patch-clamp assay; format: cell-based
[9] = Toxicity in mouse assessed as catelepsy at 10 mg/kg, ip measured for 300 mins by bar test; format: organism-based; conditions: in vivo, 5 h
[10] = molecular target: T1, Voltage-dependent T-type calcium channel subunit alpha-1H; assay: Inhibition of human Cav3.2 T-type Ca2+ channel expressed in HEK293 cells assessed as effect on T-currents in response to -20 mV test pulse at -110 mV holding potential by whole cell patch-clamp assay; format: cell-based
[11] = Toxicity in mouse assessed as catelepsy at 8 nmol per mouse, icv measured for 180 mins by bar test; conditions: in vivo, icv_or_intrathecal, 3 h
Mus musculus [12] = assay: Antinociceptive activity in Na2S induced referred hyperalgesia mouse model at 0.03 to 0.5 mg/kg, ip pretreated for 30 mins followed by intracolonic administration of Na2S and measured for 30 mins by von frey test; format: functional, organism-based; conditions: dose 0.03-0.5 mg/kg, time 60.0 min
[13] = Toxicity in mouse assessed as impairment of neuromuscular coordination by measuring shortened latency to fall at 1 mg/kg, ip measured after 60 to 90 mins by rota-rod test; format: organism-based; conditions: in vivo, time 60-90 min
Mus musculus [14] = assay: Antinociceptive activity in Na2S induced colonic pain mouse model at 0.03 to 0.5 mg/kg, ip pretreated for 30 mins followed by intra-colonic administration of Na2S and measured for 30 mins by von frey test; format: functional, organism-based; conditions: dose 0.03-0.5 mg/kg, time 60.0 min
[15] = Antagonist activity at 5-HT1 receptor (unknown origin); set-up: species or system Homo sapiens
[16] = Toxicity in mouse assessed as catelepsy at 0.3 to 1 mg/kg, ip measured for 300 mins by bar test; format: organism-based; conditions: in vivo, 5 h, dose 0.3-1 mg/kg
[17] = molecular target: 5-hydroxytryptamine receptor 2A (Rattus norvegicus) (UniProt P14842); assay: Antagonist activity at 5-HT2A receptor in Wistar rat jugular vein assessed as vasorelaxation of serotonin-induced contraction at 100 uM preincubated for 10 mins followed by serotonin stimulation; format: functional, tissue-based; conditions: filed as antagonist

T1 sequence (O95180 whole entry): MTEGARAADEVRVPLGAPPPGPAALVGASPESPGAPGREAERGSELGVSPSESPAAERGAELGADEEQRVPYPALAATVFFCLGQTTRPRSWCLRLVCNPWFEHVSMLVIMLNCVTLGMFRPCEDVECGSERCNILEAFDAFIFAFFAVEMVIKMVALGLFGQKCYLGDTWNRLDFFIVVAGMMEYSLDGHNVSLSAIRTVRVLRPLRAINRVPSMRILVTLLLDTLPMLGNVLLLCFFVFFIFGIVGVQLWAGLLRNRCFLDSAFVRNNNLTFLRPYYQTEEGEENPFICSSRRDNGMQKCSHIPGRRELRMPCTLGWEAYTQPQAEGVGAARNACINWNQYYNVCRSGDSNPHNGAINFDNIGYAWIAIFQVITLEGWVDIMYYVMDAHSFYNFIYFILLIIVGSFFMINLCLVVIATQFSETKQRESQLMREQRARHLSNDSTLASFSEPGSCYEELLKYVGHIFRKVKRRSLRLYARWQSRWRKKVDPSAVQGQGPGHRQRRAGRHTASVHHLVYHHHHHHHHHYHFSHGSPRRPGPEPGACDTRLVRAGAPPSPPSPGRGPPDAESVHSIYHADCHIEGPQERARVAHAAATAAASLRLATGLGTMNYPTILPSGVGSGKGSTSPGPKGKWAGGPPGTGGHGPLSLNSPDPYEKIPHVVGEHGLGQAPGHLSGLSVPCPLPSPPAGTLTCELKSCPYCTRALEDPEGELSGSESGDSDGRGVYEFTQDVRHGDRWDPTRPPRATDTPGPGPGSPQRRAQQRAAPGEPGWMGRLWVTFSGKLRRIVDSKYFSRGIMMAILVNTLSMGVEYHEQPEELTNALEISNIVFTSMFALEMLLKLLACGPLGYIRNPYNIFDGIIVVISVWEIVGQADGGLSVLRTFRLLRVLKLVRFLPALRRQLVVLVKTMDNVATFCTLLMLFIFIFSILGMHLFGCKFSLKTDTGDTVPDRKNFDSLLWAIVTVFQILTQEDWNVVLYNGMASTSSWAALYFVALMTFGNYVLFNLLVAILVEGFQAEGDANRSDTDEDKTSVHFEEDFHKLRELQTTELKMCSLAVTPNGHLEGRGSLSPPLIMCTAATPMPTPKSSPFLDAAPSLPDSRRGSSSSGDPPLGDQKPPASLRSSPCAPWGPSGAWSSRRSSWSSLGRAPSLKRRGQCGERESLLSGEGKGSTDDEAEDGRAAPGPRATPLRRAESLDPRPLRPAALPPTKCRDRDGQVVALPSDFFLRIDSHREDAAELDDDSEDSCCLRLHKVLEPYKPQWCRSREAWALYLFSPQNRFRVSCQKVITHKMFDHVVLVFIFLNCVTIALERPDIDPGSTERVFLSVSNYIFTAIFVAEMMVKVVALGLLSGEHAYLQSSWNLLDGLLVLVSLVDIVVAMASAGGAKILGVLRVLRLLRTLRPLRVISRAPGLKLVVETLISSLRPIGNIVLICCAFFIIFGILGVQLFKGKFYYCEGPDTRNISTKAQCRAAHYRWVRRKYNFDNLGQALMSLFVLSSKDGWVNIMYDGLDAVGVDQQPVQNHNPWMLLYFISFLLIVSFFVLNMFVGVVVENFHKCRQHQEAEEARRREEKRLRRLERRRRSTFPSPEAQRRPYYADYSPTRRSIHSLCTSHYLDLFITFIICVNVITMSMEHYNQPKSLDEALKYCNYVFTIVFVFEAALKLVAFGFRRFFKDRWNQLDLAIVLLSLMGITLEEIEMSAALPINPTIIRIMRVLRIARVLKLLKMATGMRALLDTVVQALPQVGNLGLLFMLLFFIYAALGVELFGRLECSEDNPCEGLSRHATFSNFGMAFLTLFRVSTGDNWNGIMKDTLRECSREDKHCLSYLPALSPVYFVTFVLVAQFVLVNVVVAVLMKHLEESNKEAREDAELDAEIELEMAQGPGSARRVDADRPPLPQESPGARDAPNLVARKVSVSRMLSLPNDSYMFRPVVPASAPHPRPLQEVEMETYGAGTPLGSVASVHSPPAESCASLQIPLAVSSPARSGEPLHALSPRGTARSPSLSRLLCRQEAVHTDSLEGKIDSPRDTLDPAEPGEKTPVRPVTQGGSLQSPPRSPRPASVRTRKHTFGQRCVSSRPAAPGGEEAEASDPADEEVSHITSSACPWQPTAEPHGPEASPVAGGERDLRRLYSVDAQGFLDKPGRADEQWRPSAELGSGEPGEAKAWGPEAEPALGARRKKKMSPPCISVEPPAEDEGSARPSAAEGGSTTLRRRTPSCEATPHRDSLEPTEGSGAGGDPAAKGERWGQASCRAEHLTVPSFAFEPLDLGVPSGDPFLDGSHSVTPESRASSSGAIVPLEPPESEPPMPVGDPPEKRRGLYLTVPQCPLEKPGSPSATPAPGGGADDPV
Sequence of Voltage-dependent T-type calcium channel subunit alpha-1G (O43497 whole entry): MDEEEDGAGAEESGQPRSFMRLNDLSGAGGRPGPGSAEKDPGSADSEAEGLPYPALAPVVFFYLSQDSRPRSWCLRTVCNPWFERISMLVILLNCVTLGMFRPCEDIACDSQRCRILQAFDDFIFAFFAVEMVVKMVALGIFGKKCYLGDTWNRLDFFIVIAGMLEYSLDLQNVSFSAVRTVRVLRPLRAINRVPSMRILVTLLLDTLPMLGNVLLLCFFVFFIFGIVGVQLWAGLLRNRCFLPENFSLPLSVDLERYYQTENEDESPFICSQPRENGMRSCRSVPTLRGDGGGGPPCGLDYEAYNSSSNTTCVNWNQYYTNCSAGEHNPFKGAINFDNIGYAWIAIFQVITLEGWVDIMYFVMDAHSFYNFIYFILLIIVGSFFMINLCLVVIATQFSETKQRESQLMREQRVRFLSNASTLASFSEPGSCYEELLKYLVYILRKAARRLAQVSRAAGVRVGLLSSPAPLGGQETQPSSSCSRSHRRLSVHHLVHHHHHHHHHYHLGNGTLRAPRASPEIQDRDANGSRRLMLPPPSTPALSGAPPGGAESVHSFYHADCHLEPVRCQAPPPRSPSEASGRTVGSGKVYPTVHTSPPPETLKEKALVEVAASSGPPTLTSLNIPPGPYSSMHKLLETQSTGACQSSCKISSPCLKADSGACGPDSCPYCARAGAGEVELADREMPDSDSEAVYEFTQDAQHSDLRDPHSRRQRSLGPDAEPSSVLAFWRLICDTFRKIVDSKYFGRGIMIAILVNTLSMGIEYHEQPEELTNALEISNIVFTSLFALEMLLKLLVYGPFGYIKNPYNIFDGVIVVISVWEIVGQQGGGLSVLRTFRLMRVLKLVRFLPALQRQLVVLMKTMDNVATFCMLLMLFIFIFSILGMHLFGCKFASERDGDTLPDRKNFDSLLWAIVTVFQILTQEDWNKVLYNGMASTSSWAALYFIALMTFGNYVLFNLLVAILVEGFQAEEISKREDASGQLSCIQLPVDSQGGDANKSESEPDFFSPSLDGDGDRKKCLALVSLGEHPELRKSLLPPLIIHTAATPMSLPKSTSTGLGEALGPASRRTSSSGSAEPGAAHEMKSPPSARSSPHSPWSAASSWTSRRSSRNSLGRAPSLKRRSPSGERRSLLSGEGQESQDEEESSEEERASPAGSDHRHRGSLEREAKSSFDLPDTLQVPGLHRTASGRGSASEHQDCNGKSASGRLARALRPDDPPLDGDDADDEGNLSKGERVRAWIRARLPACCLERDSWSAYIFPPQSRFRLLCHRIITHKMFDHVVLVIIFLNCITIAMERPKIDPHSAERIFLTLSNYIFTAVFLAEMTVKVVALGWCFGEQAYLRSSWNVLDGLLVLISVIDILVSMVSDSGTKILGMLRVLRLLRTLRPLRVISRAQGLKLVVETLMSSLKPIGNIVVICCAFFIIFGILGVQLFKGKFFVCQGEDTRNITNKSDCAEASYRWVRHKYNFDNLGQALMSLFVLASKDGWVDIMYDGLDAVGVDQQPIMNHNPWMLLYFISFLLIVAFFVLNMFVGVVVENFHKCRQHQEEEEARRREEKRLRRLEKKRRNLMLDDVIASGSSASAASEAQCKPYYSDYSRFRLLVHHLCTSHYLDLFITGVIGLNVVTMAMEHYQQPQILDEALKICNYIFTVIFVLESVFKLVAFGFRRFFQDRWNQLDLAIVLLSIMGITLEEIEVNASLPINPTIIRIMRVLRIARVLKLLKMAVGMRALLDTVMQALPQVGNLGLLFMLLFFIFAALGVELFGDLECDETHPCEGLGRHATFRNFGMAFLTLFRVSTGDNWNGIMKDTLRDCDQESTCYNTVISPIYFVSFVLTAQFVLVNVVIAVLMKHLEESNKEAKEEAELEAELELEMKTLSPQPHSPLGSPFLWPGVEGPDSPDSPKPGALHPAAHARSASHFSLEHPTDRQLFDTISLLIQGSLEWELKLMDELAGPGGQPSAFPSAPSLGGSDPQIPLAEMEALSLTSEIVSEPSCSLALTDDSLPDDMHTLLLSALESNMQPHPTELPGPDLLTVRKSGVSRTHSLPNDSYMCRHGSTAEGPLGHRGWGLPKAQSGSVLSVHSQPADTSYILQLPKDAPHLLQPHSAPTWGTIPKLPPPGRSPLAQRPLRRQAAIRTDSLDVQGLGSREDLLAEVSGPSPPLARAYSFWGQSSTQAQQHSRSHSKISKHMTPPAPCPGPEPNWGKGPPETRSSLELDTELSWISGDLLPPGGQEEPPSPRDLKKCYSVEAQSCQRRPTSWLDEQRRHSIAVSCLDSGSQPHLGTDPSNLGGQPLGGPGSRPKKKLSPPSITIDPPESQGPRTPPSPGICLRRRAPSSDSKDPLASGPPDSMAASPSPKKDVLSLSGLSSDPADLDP
Sequence of D(2) dopamine receptor (Rattus norvegicus) (P61169 whole entry): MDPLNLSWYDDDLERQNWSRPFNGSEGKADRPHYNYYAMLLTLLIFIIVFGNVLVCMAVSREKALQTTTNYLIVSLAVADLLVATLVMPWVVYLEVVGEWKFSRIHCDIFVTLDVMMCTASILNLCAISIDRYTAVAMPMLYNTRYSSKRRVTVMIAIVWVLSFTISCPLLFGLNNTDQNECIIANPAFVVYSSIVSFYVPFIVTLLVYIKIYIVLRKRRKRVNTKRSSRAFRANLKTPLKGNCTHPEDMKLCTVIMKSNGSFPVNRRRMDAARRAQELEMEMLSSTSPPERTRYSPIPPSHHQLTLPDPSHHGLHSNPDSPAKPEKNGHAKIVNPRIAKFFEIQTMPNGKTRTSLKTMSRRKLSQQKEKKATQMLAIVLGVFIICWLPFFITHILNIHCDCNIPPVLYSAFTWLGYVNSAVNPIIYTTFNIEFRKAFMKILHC

O=c1n(CCCCc2ccccc2)c2ccccc2n1C1CCN(CCCOc2ccccc2)CC1
inhibition [1]: Active | Activity [2]: inactive | Activity [3]: inactive

O=c1n(CCCCc2ccccc2Cl)c2ccccc2n1C1CCN(CCCCc2ccccc2)CC1
inhibition [1]: Active | Activity [2]: inactive

O=c1n(CCCCc2cccc(F)c2)c2ccccc2n1C1CCN(CCCCc2cccc(F)c2)CC1
Activity [4]: Non-Toxic | IC50 [5]: 93 nM | inhibition [1]: Active | Activity [6]: inactive | Activity [2]: inactive | half-life [7]: 145 min | IC50 [8]: 217 nM | Activity [9]: Non-Toxic | IC50 [10]: 1110 nM | Activity [11]: Non-Toxic

COc1ccc2c(c1)c(CC(=O)O)c(C)n2C(=O)c1ccc(Cl)cc1
Activity ([6]; filed as antagonist): Active

O=c1n(CCCCc2ccccc2)c2ccccc2n1C1CCN(CCCCc2ccccc2F)CC1
inhibition [1]: Active | Activity [2]: inactive

O=c1[nH]c2ccccc2n1C1CCN(CCCC(c2ccc(F)cc2)c2ccc(F)cc2)CC1 [PIMOZIDE]
Activity (Mus musculus [12]): Active | Activity [13]: Toxic | Activity (Mus musculus [14]): Active | IC50 [15]: 2440 nM | Activity ([6]; filed as antagonist): Active | Activity [16]: Toxic | half-life [7]: 148 min | IC50 [8]: 307 nM | Activity [11]: Toxic

O=c1n(CCCCc2ccccc2)c2ccccc2n1C1CCN(CCCCc2cccc(F)c2)CC1
IC50 [5]: 151 nM | inhibition [1]: Active | Activity [2]: inactive | IC50 [8]: 211 nM

O=C(CCCc1ccccc1)N1CCC(n2c(=O)n(CCCCc3ccccc3)c3ccccc32)CC1
Activity [4]: Non-Toxic | inhibition [1]: Active | Activity [2]: inactive | IC50 [8]: 240 nM | Activity [9]: Non-Toxic | Activity [11]: Non-Toxic | Activity [3]: inactive

COc1ccccc1CCCCn1c(=O)n(C2CCN(CCCCc3ccccc3)CC2)c2ccccc21
inhibition [1]: Active | Activity [2]: inactive

COc1ccccc1CCCCN1CCC(n2c(=O)n(CCCCc3ccccc3)c3ccccc32)CC1
inhibition [1]: Active | Activity [2]: inactive | Activity [3]: inactive

O=c1n(CCCCc2ccccc2)c2ccccc2n1C1CCN(CCCC(c2ccc(F)cc2)c2ccc(F)cc2)CC1
inhibition [1]: inactive | Activity [2]: inactive

COC(=O)[C@@H](N)CCCNC(=N)N[N+](=O)[O-]
Activity [17]: Active

COc1ccccc1CCCCN1CCC(n2c(=O)n(CCCCc3ccccc3OC)c3ccccc32)CC1
inhibition [1]: Active | Activity [2]: inactive

O=c1n(CCCCc2ccccc2)c2ccccc2n1C1CCN(CCCCc2ccccc2)CC1
Activity [4]: Non-Toxic | inhibition [1]: Active | Activity [2]: inactive | IC50 [8]: 209 nM | Activity [9]: Non-Toxic | Activity [11]: Non-Toxic | Activity [3]: inactive
